Results: the NIST ThermoML archive (doi:10.1016/j.jct.2013.01.033)
± gives the expanded uncertainty stated by the source.

Columns and labels:
[1] = 101.33 kPa, Liquid, Vibrating tube method
[2] = refractive index (Na D-line) (dimensionless); settings: 293.15 K; 101.33 kPa; Liquid; Standard Abbe refractometry

Row | Compound | mass density ([1]; 298.15 K) [kg/m3] | mass density ([1]; 308.15 K) [kg/m3] | mass density ([1]; 318.15 K) [kg/m3] | mass density ([1]; 328.15 K) [kg/m3] | mass density ([1]; 338.15 K) [kg/m3] | mass density ([1]; 348.15 K) [kg/m3] | refractive index [2]
1 | CCCC[N+]1(C)CCCC1.N#CC(=C=[N-])C#N [1-butyl-1-methylpyrrolidinium tricyanomethanide] | 1006.71 ± 0.85 | 1000.55 ± 0.84 | 994.44 ± 0.83 | 988.41 ± 0.82 | 982.44 ± 0.82 | 976.52 ± 0.81 | 
2 | CCCO [propan-1-ol] |  |  |  |  |  |  | 1.38432 ± 0.0007
